# Assay results taken from patent publication US9896423B2, “Deuterium substituted 1-[2-(2,4-dimethyl-phenylsulfanyl)-phenyl]piperazine compound or derivatives thereof, and pharmaceutical composition and use thereof” (Jiangsu Jibeier Pharmaceutical Co. Ltd., priority 2014, dated 2018).
# Several values for one entry are separate records, joined by “and”; a condition that tells them apart may be missing. Equal entries are not always repeated. Structures can show the parent of a compound that is named as a salt. Where two headings read alike, the source gives them in different places.
# Assay: Pharmacokinetic test in rats, gavage administration
# Assay type: in vivo, SD rats
# Method: The preferred compound of the present disclosure was assessed in rats for its pharmacokinetic profile.
# SD rats, male and female, weighing 150 to 250 g
# Mobile phase: 10 mM ammonium formate aqueous solution:methanol=15:85
# The ionization source was electrospray ionization source. The detection mode was positive mode. Multiple reaction monitoring (MRM) was used as the scanning mode. The ion reaction for the quantitative analysis was the following: m/z was 305.2\150.0 for XX, and 256.1\167.1 for diphenhydramine (the internal standard).
# XX or YY was orally administered with single dose of 20 mg/kg to six SD rats, one half of which were male and the other half was female. XX or YY was dissolved in 10% hydroxypropyl-β-cyclodextrin. […]
# After the blood collection, the tubes were immediately gently turned upside down at least five times to ensure sufficient mixing, and placed on ice. Heparin was added for anticoagulation. The samples were centrifuged at 8000 rpm for 5 min to separate serum from erythrocyte. The serum was transferred with a pipettor to 2 mL polypropylene (PP) tubes, which were marked with the name of the compound and the time points, and stored in a refrigerator at −40° C. before LC-MS analysis. Samples with high concentrations were diluted with rat blank plasma.
# 2.5 μL of Meth-H2O and 5 μL of the internal standard solution (20 ng/mL, IS) were added to 50 μL of the plasma. Subsequently, 150 μL of methanol was added to the mixture to precipitate protein and the samples were then centrifuged at 13000 rpm for 5 min. The upper organic phase was taken out, filtrated with a 0.22 μM microporous membrane, and 2 μL of the sample was injected for the LC-MS analysis.
# [1] = both sexes, Sprague-Dawley, rat, plasma, oral, 20 mg/kg, 20 mg/kg oral, individual rats 1-6, read-out: Concentrations in Plasma of Rats after Oral Administration
# [2] = both sexes, Sprague-Dawley, rat, plasma, oral, 20 mg/kg, 20 mg/kg oral, mean of 6 rats, read-out: Concentrations in Plasma of Rats after Oral Administration, Mean ± SD
# [3] = rats, oral 20 mg/kg, individual rats 1-6, 20 mg/kg
compound,measurement,setting,value
"[2H]C([2H])([2H])c1ccc(Sc2ccccc2N2CCNCC2)c(C([2H])([2H])[2H])c1 [XX, 1-{2-[2,4-bis(trideuteriomethyl)phenylsulfanyl]phenyl}piperazine hydrobromic acid salt]",concentration at 1 h,"both sexes, Sprague-Dawley, rat, plasma, oral, 20 mg/kg, 20 mg/kg oral, 1 h, mean of 6 rats, read-out: Concentrations in Plasma of Rats after Oral Administration, Mean ± SD",95.8 ± 32.9 ng/mL
same,concentration at 1.5 h,[1],73.4 ng/mL
same,concentration at 1.5 h,[2],103 ± 26.9 ng/mL
same,concentration at 2 h,[1],78.6 ng/mL
same,concentration at 2 h,[2],98.2 ± 19.5 ng/mL
same,concentration at 3 h,[1],58 ng/mL
same,concentration at 3 h,[2],68.7 ± 12 ng/mL
same,concentration at 4 h,[1],63.4 ng/mL
same,concentration at 4 h,[2],65.1 ± 10.4 ng/mL
same,concentration at 6 h,[1],46.1 ng/mL
same,concentration at 6 h,[2],44.1 ± 7.27 ng/mL
same,concentration at 8 h,[1],22.1 ng/mL
same,concentration at 8 h,[2],23.5 ± 4.49 ng/mL
same,concentration at 10 h,[1],16.7 ng/mL
same,concentration at 10 h,[2],16.5 ± 2.41 ng/mL
same,concentration at 12 h,[1],8.86 ng/mL
same,concentration at 12 h,[2],8.24 ± 1.69 ng/mL
same,concentration at 14 h,"both sexes, Sprague-Dawley, rat, plasma, oral, 20 mg/kg, 20 mg/kg oral, 14 h, mean of 6 rats, read-out: Concentrations in Plasma of Rats after Oral Administration, Mean ± SD",4.27 ± 1.58 ng/mL
same,concentration at 24 h,"both sexes, Sprague-Dawley, rat, plasma, oral, 20 mg/kg, 20 mg/kg oral, 24 h, mean of 6 rats, read-out: Concentrations in Plasma of Rats after Oral Administration, Mean ± SD",0.75 ± 0.51 ng/mL
same,bioavailability,"both sexes, Sprague-Dawley, rat, plasma, oral, 20 mg/kg, rats, oral 20 mg/kg vs iv 2 mg/kg, n = 6, read-out: F % (absolute bioavailability), Mean ± SD",12.2 ± 1.72%
same,AUC(0-t),"both sexes, Sprague-Dawley, rat, plasma, po, 20 mg/kg, gavage administration of 20 mg/kg, rats, read-out: AUC0-t in the rats' plasma",583 ± 82.7 ng·h/mL
same,AUC0-t increased comparing with that of its non-deuterium counterpart,"rats, gavage 20 mg/kg, relative to Vortioxetine",19%
same,F %,"rats, oral 20 mg/kg vs iv 2 mg/kg, individual rats 1-6",11.5% and 10.1% and 13.8% and 14.6% and 11.9%
same,AUC0-t (area under the plasma concentration-time curve from zero to the last sampling time),[3],552.3 ng·h/mL and 487.5 ng·h/mL and 659.3 ng·h/mL and 703.9 ng·h/mL and 569.8 ng·h/mL
same,AUC0-∞,[3],552.5 ng·h/mL and 488.9 ng·h/mL and 666.0 ng·h/mL and 705.3 ng·h/mL and 571.4 ng·h/mL
same,Cmax,[3],91.6 ng/mL and 77.8 ng/mL and 120.8 ng/mL and 144 ng/mL and 115.8 ng/mL
same,MRT0-∞,[3],4.92 h and 5.44 h and 5.08 h and 4.24 h and 4.28 h
same,t1/2,[3],4.0 h and 1.7 h and 2.8 h and 3.5 h and 2.6 h and 2.9 h
